The text below walks through data of US20080171740A1, “Chemical Compounds” (SMITHKLINE BEECHAM CORPORATION, priority 2004, published 2008).

Read-outs that look alike come from different tables or passages of the source. Where only a bound is given, the exact number is not on record here.

What all share (format): cell-based
Data set [1] in a line: Compound cytotoxicity in the absence of virus (CellTiter-Glo). Particulars: human; non-infected HOS cultures, cell viability; read-out: Cytotox (pIC50) (converted). As for the experimental part:
(§1) Compounds were profiled against two HIV-1 viruses, the M-tropic (CCR5 utilizing) Ba-L strain and the T-tropic (CXCR4 utilizing) IIIB strain. Both viruses were propagated in human peripheral blood lymphocytes. Compounds were tested for there ability to block infection of the HOS cell line (expressing hCXCR4/hCCR5/hCD4/pHIV-LTR-luciferase) by either HIV-1 Ba-L or HIV-1 IIIB. Compound cytotoxicity was also examined in the absence of virus addition.
(§2) HOS cells (expressing hCXCR4/hCCR5/hCD4/pHIV-LTR-luciferase) were harvested and diluted in Dulbeccos modified Eagles media supplemented with 2% FCS and non-essential amino acid to a concentration of 60,000 cells/ml. The cells were plated into 96-well plates (100 ul per well) and the plates were placed in a tissue culture incubator (37° C.; 5% CO2/95% air) for a period of 24 h.
(§3) Subsequently, 50 ul of the desired drug solution (4 times the final concentration) was added to each well and the plates were returned to the tissue culture incubator (37° C.; 5% CO2/95% air) for 1 h. Following this incubation 50 ul of diluted virus was added to each well (approximately 2 million RLU per well of virus). The plates were returned to the tissue culture incubator (37° C.; 5% CO2/95% air) and were incubated for a further 96 h.
(§4) Following this incubation the endpoint for the virally infected cultures was quantified following addition of Steady-Glo Luciferase assay system reagent (Promega, Madison, Wis.). Cell viability or non-infected cultures was measured using a CellTiter-Glo luminescent cell viability assay system (Promega, Madison, Wis.). All luminescent readouts are performed on a Topcount luminescence detector (Packard, Meridien, Conn.).
Background: In ATP-based viability assays light output follows the ATP content of the culture.

For data set [2], the system named is HIV-1 gp160 (HXB2 strain) mediated fusion with HOS (hCXCR4/hCCR5/hCD4/pHIV-LTR-luciferase) cells. The data set is described as follows: Cell/cell fusion assay (HEK-293 expressing HIV-1 tat, rev, gp160 with HOS hCXCR4/hCCR5/hCD4/pHIV-LTR-luciferase cells). Particulars: Homo sapiens, HEK293; luciferase readout after 24 h; read-out: Fusion assay (pIC50) (converted). An excerpt:
The complete coding sequences of HIV-1 tat (GenBank Accession No. X07861) and rev (GenBank Accession No. M34378) were cloned into pcDNA3.1 expression vectors containing G418 and hygromycin resistance genes, respectively. The complete coding sequence of the HIV-1 (HXB2 strain) gp160 envelope gene (nucleotide bases 6225-8795 of GenBank Accession No. K03455) was cloned into plasmid pCRII-TOPO. The three HIV genes were additionally inserted into the baculovirus shuttle vector, pFastBacMam1, under the transcriptional control of the CMV promoter. A construction of the pHIV-I LTR containing mutated NFkB sequences linked to the luciferase reporter gene was prepared by digesting pcDNA3.1, containing the G418 resistance gene, with Nru I and Bam HI to remove the CMV promoter. LTR-luc was then cloned into the Nru I/Bam HI sites of the plasmid vector. Plasmid preparations were performed after the plasmids were amplified in Escherichia coli strain DH5-alpha. The fidelity of the inserted sequences was confirmed by double-strand nucleotide sequencing using an ABI Prism Model 377 automated sequencer.
Recombinant BacMam baculoviruses were constructed from pFastBacMam shuttle plasmids by using the bacterial cell-based Bac-to-Bac system. Viruses were propagated in Sf9 (Spodoptera frugiperda) cells cultured in Hink's TNM-FH Insect media supplemented with 10% (v/v) fetal bovine serum and 0.1% (v/v) pluronic F-68 according to established protocols.
Human osteosarcoma (HOS) cells that naturally express human CXCR4 were transfected with human CCR5, human CD4 and the pHIV-LTR-luciferase plasmid using FuGENE 6 transfection reagent. Single cells were isolated and grown under selection condition in order to generate a stable HOS (hCXCR4/hCCR5/hCD4/pHIV-LTR-luciferase) clonal cell line. The cells were maintained in Dulbeccos modified Eagles media supplemented with 10% fetal calf serum (FCS), G418 (400 ug/ml), puromycin (1 ug/ml), mycophenolic acid (40 ug/ml), xanthine (250 ug/ml) and hypoxanthine (13.5 ug/ml) to maintain a selection pressure for cells expressing the LTR-luciferase, hCCR5 and hCD4, respectively. Human embryonic kidney (HEK-293) cells stably transfected to express the human macrophage scavenging receptor (Class A, type 1; GenBank Accession No. D90187), were maintained in DMEM/F-12 media (1:1) supplemented with 10% FCS and 1.5 ug/ml puromycin. The expression of this receptor by the HEK-293 cells enhances their ability to stick to tissue culture treated plasticware.
HEK-293 cells were harvested using enzyme-free cell dissociation buffer. The cells were resuspended in DMEM/F-12 media supplemented with 10% FCS and 1.5 ug/ml and counted. Tranductions were performed by direct addition of BacMam baculovirus containing insect cell media to cells. The cells were simultaneously transduced with BacMam baculovirus expressing HIV-1 tat, HIV-1 rev and HIV-1 gp160 (from the HXB2 HIV strain). Routinely an MOI of 10 of each virus was added to the media containing the cells. 2 mM butyric acid was also added to the cells at this stage to increase protein expression in transduced cells. The cells were subsequently mixed and seeded into a flask at 30 million cells per T225. The cells were incubated at 37° C., 5% CO2, 95% humidity for 24 h to allow for protein expression.
HEK and HOS cells were harvested in DMEM/F-12 media containing 2% FCS and DMEM media containing 2% FCS, respectively, with no selection agents added. Compounds were plated as 1 ul spots in 100% DMSO on a 96-well CulturPlate plates. HOS cells (50 ul) were added first to the wells, followed immediately by the HEK cells (50 ul). The final concentration of each cell type was 20,000 cells per well. Following these additions, the cells were returned to a tissue culture incubator (37° C.; 5% CO2/95% air) for an additional 24 h.
Following the 24 h incubation, total cellular luciferase activity was measured using the LucLite Plus assay kit (Packard, Meridien, Conn.). […]

The subject of data set [3] is HIV-1 IIIB strain, T-tropic (CXCR4 utilizing). The data set is described as follows: HOS HIV-1 infectivity assay. As for the experimental part:
as §1, §2, §3, §4

The next data set concerns the target T1, CXCR4 receptor (Homo sapiens, UniProt P61073).
T1 construct: expressed in transfected cells; host or cells: HEK-293 cells (stably expressing human macrophage scavenging receptor) transduced with human CXCR4 BacMam and Gqi5 BacMam
The data set is described as follows: Functional FLIPR assay (block of SDF-1 alpha induced [Ca2+]i change). As to conditions: HEK-293 cells with human CXCR4 BacMam and Gqi5 BacMam; antagonism of SDF-1 alpha; read-out: Functional assay (pIC50) (converted). The protocol:
Human embryonic kidney (HEK-293) cells were maintained and harvested as described above. Cells were plated in 96-well, black clear bottom, poly-lysine coated plates at a concentration of 40,000 cells per well in a final volume of 100 ul containing human CXCR4 BacMam (MOI=25) and Gqi5 BacMam (MOI=12.5). The cells were incubated at 37° C., 5% CO2, 95% humidity for 24 h to allow for protein expression.
After the required incubation time the cells were washed once with 50 ul of fresh serum-free DMEM/F12 media containing probenicid. 50 ul of dye solution was then added to the cells (Calcium Plus Assay Kit Dye; Molecular Devices) was dissolved in 200 ml of the above probenicid/BSA containing media and incubated for 1 h. Cell plates were transferred to a Fluorometric Imaging Plate Reader (FLIPR). Upon addition the effect of the compounds on the change in [Ca^2+]i was examined to determine if the compounds were agonists or antagonists (ability to block SDF-1 alpha activity) at the CXCR4 receptor. IC50 values are determined and pKb values are calculated using the Leff and Dougall equation: KB=IC50/((2+([agonist]/EC50̂b)̂1/b -1) Where IC50 is that defined by the antagonist concentration-response curve [agonist] is the EC80 concentration of agonist used EC50 is that defined by the agonist concentration-response curve b is the slope of the agonist concentration-response curve.

Setting [4] is: Human immunodeficiency virus 1, IIIB, HOS HIV anti-infectivity assay, strain not named in Table 2, read-out: Activity Level.

T1 sequence (P61073 whole entry): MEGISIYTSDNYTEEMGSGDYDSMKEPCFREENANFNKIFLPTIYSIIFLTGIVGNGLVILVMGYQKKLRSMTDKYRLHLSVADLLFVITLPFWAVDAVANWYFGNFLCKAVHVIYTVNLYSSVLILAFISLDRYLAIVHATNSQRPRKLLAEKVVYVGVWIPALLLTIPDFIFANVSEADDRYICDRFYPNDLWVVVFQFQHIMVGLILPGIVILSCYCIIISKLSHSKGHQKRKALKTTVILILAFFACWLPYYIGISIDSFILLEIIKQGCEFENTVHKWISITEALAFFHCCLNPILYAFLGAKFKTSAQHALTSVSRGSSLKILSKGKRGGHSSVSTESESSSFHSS

On to `NCCCCN(Cc1cn2ccccc2n1)C1CCCc2cccnc21` (stereo not drawn) [Example 1, N-(Imidazo[1,2-a]pyridin-2-ylmethyl)-N-(5,6,7,8-tetrahydro-8-quinolinyl)-1,4-butanediamine], for which the IC50 at 96 h in data set [1] is more than 100000 nM. For the same compound, the IC50 was 79.4 nM in data set [2]; less than 100 nM in data set [3] (setting [4]); 42 nM in data set [3] (Human immunodeficiency virus 1, HOS cells, HIV-1 IIIB, 96 h, luciferase, read-out: HOS (3B)); 33.9 nM at CXCR4 receptor.

For `CN1CCN(c2cccc3nc(CN(Cc4ccccc4N(C)C)[C@H]4CCCc5cccnc54)cn23)CC1` [Example 29, (8S)-N-{[2-(Dimethylamino)phenyl]methyl}-N-{[5-(4-methyl-1-piperazinyl)imidazo[1,2-a]pyridin-2-yl]methyl}-5,6,7,8-tetrahydro-8-quinolinamine], the IC50 in data set [3] (setting [4]) is less than 100 nM.

As to `CN1CCN(c2cccc3nc(CN(Cc4ccccn4)[C@H]4CCCc5cccnc54)cn23)CC1` [Example 30, (8S)-N-{[5-(4-Methyl-1-piperazinyl)imidazo[1,2-a]pyridin-2-yl]methyl}-N-(2-pyridinylmethyl)-5,6,7,8-tetrahydro-8-quinolinamine], the IC50 in data set [3] (setting [4]) was in the range of 100 to 500 nM.

In the case of `CN1CCN(c2cccc3nc(CN(Cc4cccnc4)[C@H]4CCCc5cccnc54)cn23)CC1` [Example 31, (8S)-N-{[5-(4-Methyl-1-piperazinyl)imidazo[1,2-a]pyridin-2-yl]methyl}-N-(3-pyridinylmethyl)-5,6,7,8-tetrahydro-8-quinolinamine], the IC50 in data set [3] (setting [4]) was less than 100 nM.

`CN1CCN(c2cccc3nc(CN(Cc4ccncc4)[C@H]4CCCc5cccnc54)cn23)CC1` [Example 32, (8S)-N-{[5-(4-Methyl-1-piperazinyl)imidazo[1,2-a]pyridin-2-yl]methyl}-N-(4-pyridinylmethyl)-5,6,7,8-tetrahydro-8-quinolinamine]: the IC50 in data set [3] (setting [4]) is less than 100 nM.

On to `CN1CCN(c2cccc3nc(CN(Cc4ccccn4)[C@H]4CCCc5cccnc54)c(CO)n23)CC1` [Example 34, [5-(4-Methyl-1-piperazinyl)-2-({(2-pyridinylmethyl)[(8S)-5,6,7,8-tetrahydro-8-quinolinyl]amino}methyl)imidazo[1,2-a]pyridin-3-yl]methanol], for which, in data set [3] (setting [4]), the IC50 is less than 100 nM.

`CN1CCN(c2cccc3nc(CN(Cc4cccnc4)[C@H]4CCCc5cccnc54)c(CO)n23)CC1` [Example 35, [5-(4-Methyl-1-piperazinyl)-2-({(3-pyridinylmethyl)[(8S)-5,6,7,8-tetrahydro-8-quinolinyl]amino}methyl)imidazo[1,2-a]pyridin-3-yl]methanol]: the IC50 in data set [3] (setting [4]) is less than 100 nM.

For the compound `CN1CCN(c2cccc3nc(CN(Cc4ccncc4)[C@H]4CCCc5cccnc54)c(CO)n23)CC1` [Example 36, [5-(4-Methyl-1-piperazinyl)-2-({(4-pyridinylmethyl)[(8S)-5,6,7,8-tetrahydro-8-quinolinyl]amino}methyl)imidazo[1,2-a]pyridin-3-yl]methanol], the IC50 in data set [3] (setting [4]) was less than 100 nM.

Turning to `NC1CCC(N(Cc2cn3ccccc3n2)C2CCCc3cccnc32)CC1` (stereo not drawn) [Example 37, N-(Imidazo[1,2-a]pyridin-2-ylmethyl)-N-(5,6,7,8-tetrahydro-8-quinolinyl)-1,4-cyclohexanediamine], in data set [3] (setting [4]), the IC50 is 100 to 500 nM.

Turning to `NCCN(Cc1cn2ccccc2n1)C1CCCc2cccnc21` (stereo not drawn) [Example 42, N-(Imidazo[1,2-a]pyridin-2-ylmethyl)-N-(5,6,7,8-tetrahydroquinolin-8-yl)ethane-1,2-diamine], the IC50 in data set [3] (setting [4]) lay within 500 to 10000 nM.

With `NCCCCCN(Cc1cn2ccccc2n1)C1CCCc2cccnc21` (stereo not drawn) [Example 43, N-(Imidazo[1,2-a]pyridin-2-ylmethyl)-N-(5,6,7,8-tetrahydro-8-quinolinyl)-1,5-pentanediamine], the IC50 in data set [3] (setting [4]) was in the range of 100 to 500 nM.

For the compound `NCCCN(Cc1cn2ccccc2n1)C1CCCc2cccnc21` (stereo not drawn) [Example 44, N-(Imidazo[1,2-a]pyridin-2-ylmethyl)-N-(5,6,7,8-tetrahydro-8-quinolinyl)-1,3-propanediamine], the IC50 in data set [3] (setting [4]) lay within 500 to 10000 nM.

As to `NCCCCN(Cc1nc2ccccn2c1Cl)C1CCCc2cccnc21` (stereo not drawn) [Example 45, N-[(3-Chloroimidazo[1,2-a]pyridin-2-yl)methyl]-N-(5,6,7,8-tetrahydro-8-quinolinyl)-1,4-butanediamine], in data set [3] (setting [4]), the IC50 was less than 100 nM.

For `NCCCCN(Cc1nc2ccccn2c1Br)C1CCCc2cccnc21` (stereo not drawn) [Example 46, N-[(3-Bromoimidazo[1,2-a]pyridin-2-yl)methyl]-N-(5,6,7,8-tetrahydro-8-quinolinyl)-1,4-butanediamine], the IC50 in data set [3] (setting [4]) was less than 100 nM.
